This is an account of results in ChEMBL document CHEMBL3045908, “Phenolic and iridoid glycosides from the rhizomes of Cyperus rotundus L” (Med Chem Res, 2013).

This assay concerns RAW264.7. Briefly: Anti-inflammatory activity in Mus musculus (mouse) RAW264.7 cells assessed as inhibition of PMA-induced macrophages respiratory burst measured up to 30 min by chemiluminescence method. Format: functional, cell-based. The following applies: RAW264.7, 0.5 h.
As a reminder, the IC50 is the concentration that gives 50% inhibition. For `COC(=O)C1=CO[C@@H](O[C@@H]2O[C@H](CO[C@@H]3O[C@H](COC(=O)/C=C/c4ccc(O)cc4)[C@@H](O)[C@H](O)[C@H]3O)[C@@H](O)[C@H](O)[C@H]2O)[C@@H]2C(CO)=CC[C@H]12` [6'-O-P-COUMAROYLGENIPIN GENTIOBIOSIDE], the IC50 is 78.7 µM.
The result for `COc1cc(/C=C/C(=O)O[C@H]2[C@H](O[C@@H]3O[C@H](CO)[C@@H](O)[C@H](O)[C@H]3O)[C@@H](O[C@@H]3OC[C@H](O)[C@H](O)[C@H]3O)[C@H](OCCc3ccc(O)c(O)c3)O[C@@H]2CO)ccc1O` [CHIONOSIDE A] reads 336 µM.
With `C[C@@H]1C[C@H]2[C@@H]3CCC4=CC(=O)C=C[C@]4(C)[C@@]3(F)[C@@H](O)C[C@]2(C)[C@@]1(O)C(=O)CO` [DEXAMETHASONE], the IC50 worked out at 355 µM.
The result for `COc1cc(/C=C/C(=O)O[C@H]2[C@H](O[C@@H]3O[C@H](CO)[C@@H](O)[C@H](O)[C@H]3O)[C@@H](O[C@@H]3OC[C@H](O)[C@H](O)[C@H]3O)[C@H](OCCc3ccc(O)c(O)c3)O[C@@H]2CO[C@@H]2OC[C@H](O)[C@@H](O)[C@@H]2O)ccc1O` [HELIOSIDE C] reads 320 µM.
The value for `O=C(/C=C/c1ccc(O)cc1)OC[C@H]1O[C@@H](OCCc2ccc(O)c(O)c2)[C@H](O[C@@H]2OC[C@H](O)[C@H](O)[C@H]2O)[C@@H](O[C@@H]2O[C@H](CO)[C@@H](O)[C@H](O)[C@H]2O)[C@@H]1O` [ISOARAGOSIDE] was 308 µM.
The result for `COC(=O)C1=CO[C@@H](O[C@@H]2O[C@H](CO)[C@@H](O)[C@H](O)[C@H]2O)[C@@H]2C(CO)=C[C@@H](OC[C@H]3O[C@@H](O[C@@H]4OC=C(C(=O)OC)[C@H]5C=C[C@](O)(CO)[C@@H]45)[C@H](O)[C@@H](O)[C@@H]3O)[C@H]12` [ROTUNDUSIDE A] reads 217 µM.
Turning to `COC(=O)C1=CO[C@@H](O[C@@H]2O[C@H](CO[C@@H]3O[C@H](COC(=O)/C=C/c4cc(O)c(O)c(O)c4)[C@@H](O)[C@H](O)[C@H]3O)[C@@H](O)[C@H](O)[C@H]2O)[C@@H]2C(CO)=CC[C@H]12` [ROTUNDUSIDE B], the IC50 came to 31.1 µM.
In the case of `C[C@@H]1O[C@@H](OC[C@H]2O[C@@H](Oc3c(-c4ccc(O)c(O)c4)oc4cc(O)cc(O)c4c3=O)[C@H](O)[C@@H](O)[C@@H]2O)[C@H](O)[C@H](O)[C@H]1O` [RUTIN], the IC50 is 15.1 µM.
